# From US20080220416A1, “Compositions for Inhibiting Cell Growth and Inducing Apoptosis in Cancer Cells and Methods of Use Thereof” (THE BOARD OF TRUSTEES OF THE UNIVERSITY OF ILLINOI, priority 2004, published 2008)
# Assays:
# Format in all cases: cell-based, human
# [1] = tested on: CaSki cells; assay: LY411,575 combinations in CaSki cells, growth inhibition and isobologram analysis; conditions: in vitro
# Description: To evaluate the possibility that inhibition of Notch signaling may sensitize advanced cervical cancers to the effect of cisplatin chemotherapy because Notch-1 protects these cells from apoptosis through the AKT and NF-κB pathways, a non-peptide, benzodiazepine gamma-secretase inhibitor, LY411,575 (Wong et al., 2004, J Biol. Chem. 279:12876-82) was tested in combination with a AKT inhibitor (AKT inhibitor I) or a proteasome inhibitor (MG-132) for effects on cell growth. The latter class of drugs is thought to act primarily by preventing NF-KB activation (Adams, J, 2002, Curr Opin Oncol 14:628-634; Richardson, P, 2003, Cancer Treat Rev 29 Suppl 1:33-39) caused by proteasome-mediated degradation of IκB.
# To determine whether LY411,575 potentiates the effect of AKT inhibitor I or MG-132, CaSki cells were treated with (a) LY411,575 (6.25 μM to 50 μM) and AKT inhibitor 1 (0.5 μM to 75 μM), or (b) LY411,575 (1.5 μM to 200 μM) and MG-132 (0.05 μM to 0.2). Following the drug treatment, the cells were tested for growth inhibition as described above. LY411,575 was synthesized according to methods well known in the art (e.g., see WO-09828268, which is incorporated by reference), and AKT inhibitor I and MG-132 were purchased from Calbiochem.
# The IC50 values of LY411,575 in the presence of various concentrations of AKT inhibitor I or MG-132 were measured. […]
# [2] = tested on: NOXA; assay: NOXA antisense oligonucleotide pretreatment before proteasome inhibitors in melanoma cell lines; conditions: MG-132, lactacystin or bortezomib; three melanoma cell lines; 24 hrs
# Excerpt: To more definitively establish a role for NOXA in the proteasome inhibitor-induced apoptotic response, three different melanoma cell lines were pre-treated with an antisense oligonucleotides (ASO). The ASOs included a NOXA targeted sequence (5′-TCAGTCTACTGATTTACTGG-3′) (SEQ ID NO: 2) and a universal scrambled control oligonucleotide (5′-TTCTACCTCGCGCGATTTAC-3′) (SEQ ID NO: 4) (FIGS. 10A, 10B and 10C), or control oligonucleotide (CO) (5′-CCTTCCCTGAAGGTTCCTCC-3′) (SEQ ID NO: 3) (FIGS. 6B and 6D). All three ASO were provided by ISIS Pharmaceuticals Inc. (Carlsbad, Calif.) as previously described by Qin et al., 2004, Mol Cancer Ther. 3:895-902). Melanoma cells were seeded at 2×10^5 cells into 6 well plates 1 day before transfection. Opti-MEM (InVitrogen) was pre-incubated for 30 minutes at room temperature using a ratio of 3 μM/mL lipofectamine per 100 nmol/L to produce a final oligonucleotide concentration of […]. Cells were washed with PBS and transfection mix (1 ml) was added. […] The treated cells were analyzed for cell viability using APO TARGET Annexin V-FITC staining kits (Biosource) and by Western blot using NOXA and β-actin antibodies as described above.
# [3] = tested on: NOXA; assay: NOXA antisense oligonucleotide in z-Leu-Leu-Nle-CHO-treated melanoma cells (Western blot, sub-G0 DNA content); conditions: RJ002L
# Excerpt: The role of NOXA in z-Leu-Leu-Nle-CHO-mediated apoptosis of melanoma cells was further evaluated using RJ002L, C8161 and MUM2B melanoma cell lines containing antisense oligonucleotide targeting NOXA. The antisense oligonucleotides (ASO) included a NOXA targeted sequence (5′-TCAGTCTACTGATTTACTGG-3′) (SEQ ID NO: 2) and a control oligonucleotide (CO) (5′-CCTTCCCTGAAGGTTCCTCC-3′) (SEQ ID NO: 3). The ASO were purchased from ISIS Pharmaceuticals Inc. (Carlsbad, Calif.) as previously described by Qin J et al., 2004, Mol Cancer Ther 3:895-902. Melanoma cells were seeded at 2×10^5 cells into 6 well plates I day before transfection. Opti-MEM (InVitrogen) was pre-incubated for 30 minutes at room temperature using a ratio of 3 μM/mL lipofectamine per 100 nmol/L to produce a final oligonucleotide concentration of 50 nmol/L. Cells were washed with PBS and transfection mix (1 ml) was added. After 4 hrs of incubation, RPMI 1640 (1 mL) containing 20% fetal bovine serum and z-Leu-Leu-Nle-CHO (10 μM) was added to the cells and the cells were incubated for 24 hrs. The treated cells were analyzed for cell viability using APO TARGET Annexin V-FITC staining kits (Biosource), for cell cycle progression and by Western blot using NOXA, Bim, Bak and β-actin antibodies as described above.
# [4] = tested on: MDA-MB231 cells; assay: Cell cycle distribution of MDA-MB231 cells by flow cytometry; conditions: siRNA transfection
# Description: Cell cycle analysis was performed to further study the effects of inhibition of Notch signaling in breast cancer cells. MDA-MB231 cells were treated overnight with 0-10 μM z-Leu-Leu-Nle-CHO prior to cell cycle distribution analysis by flow cytometry. Alternatively, MDA-MB231 cells were transfected with Notch-1, Notch-4 or control siRNA as described above in Example 15. For cell cycle distribution analysis by flow cytometry, z-Leu-Leu-Nle-CHO- or siRNA-treated cells (10^6) were pelleted and washed twice in PBS. Cells were then fixed in 80% methanol and stored at −20° C. until use. Fixed cells were pelleted and washed twice in PBS, and resuspended in 50 μl PI:PBS solution (50 μg/ml PI). After RNase A (100 μg/ml) treatment at 37° C. for an hour, cells were analyzed by flow cytometry using a FACScalibur instrument.
# [5] = tested on: MDA-MB231 breast cancer cells; assay: Cytotoxicity and growth assay in MDA-MB231 breast cancer cells (SRB, TCA-precipitated protein); conditions: MDA-MB231; siRNA transfection
# Description: An invasive, estrogen-independent breast cancer cell line that spontaneously expresses high levels of Notch-1 and -4, MDA-MB231, and normal human breast cells were used to investigate whether inhibition of Notch activation or expression affects the biological behavior of breast cancer cells. Human Mammary Epithelial Cells (HMEC) were purchased from Clonetics and cultured in mammary epithelial cell basal medium (MEBM) supplemented with 52 μg/ml Bovine Pituitary Extract […], […] human recombinant Epidermal Growth Factor (hEGF), 5 μg/ml insulin, 0.5 μg/ml Hydrocortisone, 50 μg/ml Gentamicin and 50 μg/ml Amphotericin-B. MDA-MB231 (ATCC, Rockville, Md.) were cultured in DMEM medium with 10% FBS. Notch expression in HMEC and MDA-MB231 cells was silenced using highly specific RNAi. Double-stranded synthetic 21-mer RNA oligonucleotides (siRNAs) were purchased from Dharmacon (Lafayette, Colo.). […] Sequence specificity was determined by BLAST searches which determined the uniqueness of the sequences. Transfection of siRNAs was performed using Oligofectamine (Invitrogen) as recommended by the siRNA manufacturer (Dharmacon). Transfection efficiency was optimized and followed on parallel wells using DNA double stranded oligos of identical sequence to the siRNAs, labeled with biotin on one strand. Transfected cells were identified by Streptavidin-horseradish peroxidase staining (Vectastain) and counted. Transfection efficiencies around 80% were routinely obtained.
# Cytotoxicity and growth of transfected cells were estimated by a standard assay used for cancer drug screening, through the total amount of TCA-precipitated cell proteins after drug treatment (Likhitwitayawuid, K et al., 1993, J Nat Prod 56:30-38): 200 μl of cell suspension (10^5 cells/ml) were added to each well in a 96-well plate. After incubation at, 37° C., in 5% CO2 (30 minutes to 72 hours depending on the time course chosen), 50 μl 50% trichloroacetic acid was added to each well. After incubation at 4° C. for 1 hour, precipitates were washed with water 4-5 times and air dried overnight. One hundred μl of SRB solution (0.4% sulforhodamine B in 1% acetic acid, filtered before use) was added to each well for 30 minutes. Wells were washed with 1% acetic acid 4-5 times and air dried. Two hundred μl 10 mM Tris base was added to each well. Plates were shaken for 5-10 minutes and OD at 490 nm (OD490) was recorded via ELISA reader. To assay matrix invasion, 300 μl of cell suspension (10^6 cells/mL in serum-free medium) were added to invasion inserts (BioCoat Matrigel Invasion Chambers, Becton Dickinson, Bedford, Mass.) and incubated for 22 hours at 37° C., 5% CO2. […] After removal of the non-invading cells from the interior of the inserts, stained invading cells were lysed in 10% acetic acid and OD595 was determined. […]
# [6] = tested on: MDA-MB231 breast cancer cells; assay: Extracellular matrix invasion of MDA-MB231 cells (Matrigel Invasion Chambers); conditions: siRNA transfection, 22 hours
# Description: Cytotoxicity and growth of transfected cells were estimated by a standard assay used for cancer drug screening, through the total amount of TCA-precipitated cell proteins after drug treatment (Likhitwitayawuid, K et al., 1993, J Nat Prod 56:30-38): 200 μl of cell suspension (10^5 cells/ml) were added to each well in a 96-well plate. After incubation at, 37° C., in 5% CO2 (30 minutes to 72 hours depending on the time course chosen), 50 μl 50% trichloroacetic acid was added to each well. After incubation at 4° C. for 1 hour, precipitates were washed with water 4-5 times and air dried overnight. One hundred μl of SRB solution (0.4% sulforhodamine B in 1% acetic acid, filtered before use) was added to each well for 30 minutes. Wells were washed with 1% acetic acid 4-5 times and air dried. Two hundred μl 10 mM Tris base was added to each well. Plates were shaken for 5-10 minutes and OD at 490 nm (OD490) was recorded via ELISA reader. To assay matrix invasion, 300 μl of cell suspension (10^6 cells/mL in serum-free medium) were added to invasion inserts (BioCoat Matrigel Invasion Chambers, Becton Dickinson, Bedford, Mass.) and incubated for 22 hours at 37° C., 5% CO2. Cells were stained with 0.9% crystal violet in 10% ethanol for 20 minutes. Inserts were dipped in water several times and air dried. After removal of the non-invading cells from the interior of the inserts, stained invading cells were lysed in 10% acetic acid and OD595 was determined.
# Notch silencing was confirmed by Western blot as described above in Example 15 using commercial goat polyclonal antibodies from Santa Cruz Biotechnology to Notch-1 (C-20, Cat# sc-6014 S). For the Western blot analyses, MDA-MB231 cells were treated with 25 μM IL-X for 48 h or with 0.5, 1 or 2 μM z-Leu-Leu-Nle-CHO for 24 h. Cytotoxicity and matrix invasion assays were performed as described above in Example 15. For the cytotoxicity assays, MDA-MB231 cells were treated with […] IL-X for up to 3 days or with 0-20 μM z-Leu-Leu-Nle-CHO for up to 4 days. […]
compound,measurement,setting,value
"C[C@H](NC(=O)[C@@H](O)c1cc(F)cc(F)c1)C(=O)N[C@@H]1C(=O)N(C)c2ccccc2-c2ccccc21 [LY411,575]",potency relative to z-Leu-Leu-Nle-CHO,[1],less potent than z-Leu-Leu-Nle-CHO in vitro
"5′-TCAGTCTACTGATTTACTGG-3′ (antisense TCAGTCTACTGATTTACTGG; listed as DNA, chemistry not given here) [NOXA ASO]",reduction of proteasome inhibitor-induced apoptotic response,[2],30-50%
same,effect on z-Leu-Leu-Nle-CHO mediated apoptosis (sub-G0 DNA content),"[3]; C8161, MUM2B, p<0.01 versus control oligonucleotide",significantly reduced z-Leu-Leu-Nle-CHO mediated apoptosis
same,"effect on z-Leu-Leu-Nle-CHO induction of NOXA, Bim, Bak",[3]; 50 nmol/L oligonucleotide,"blocked induction of NOXA, but not Bim or Bak"
5′-AACCCTGTGCCAATGGAGGCA-3′ [Notch-4 siRNA],cell cycle distribution,[4],accumulation of cells in G2/M was maximal at 24 hours
same,proliferation,[5],even stronger anti-proliferative effect in MDA-MB231 cells than Notch-1 silencing
same,extracellular matrix invasion,[6],significantly inhibited extracellular matrix invasion
